# Data from patent publication US5441887A, “Rapid degradation of halogenated hydrocarbons by soluble methane monooxygenase” (Regents of the University of Minnesota, priority 1994, dated 1995).
# Tests used:
# [1] = target: T1, soluble methane monooxygenase (reductase, component B, hydroxylase) (Methylosinus trichosporium, UniProt P27353); assay: Degradation of 14C-TCE by purified methane monooxygenase components with NADH, HPLC analysis; format: biochemical, Methylosinus trichosporium OB3b
# T1 construct: The cells were disintegrated by sonication; made in house; host or cells: native protein purified from cell paste of the methane-oxidizing bacterium (no recombinant host given)
# T1 sequence (P27353 1-526): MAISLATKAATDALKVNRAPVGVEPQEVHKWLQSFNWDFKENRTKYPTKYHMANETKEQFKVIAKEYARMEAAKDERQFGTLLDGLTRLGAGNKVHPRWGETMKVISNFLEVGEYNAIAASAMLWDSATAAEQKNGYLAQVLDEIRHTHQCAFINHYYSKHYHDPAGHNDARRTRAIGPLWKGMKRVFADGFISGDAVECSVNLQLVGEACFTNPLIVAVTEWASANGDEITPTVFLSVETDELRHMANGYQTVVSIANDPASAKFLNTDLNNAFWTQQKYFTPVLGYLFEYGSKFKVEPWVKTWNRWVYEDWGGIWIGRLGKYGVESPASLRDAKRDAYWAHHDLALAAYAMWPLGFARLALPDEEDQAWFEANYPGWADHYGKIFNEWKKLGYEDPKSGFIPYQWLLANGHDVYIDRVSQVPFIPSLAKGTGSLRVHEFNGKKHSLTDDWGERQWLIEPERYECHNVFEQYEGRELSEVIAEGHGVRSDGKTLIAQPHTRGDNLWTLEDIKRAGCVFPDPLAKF
# T1 sequence (P27354 1-394 partner): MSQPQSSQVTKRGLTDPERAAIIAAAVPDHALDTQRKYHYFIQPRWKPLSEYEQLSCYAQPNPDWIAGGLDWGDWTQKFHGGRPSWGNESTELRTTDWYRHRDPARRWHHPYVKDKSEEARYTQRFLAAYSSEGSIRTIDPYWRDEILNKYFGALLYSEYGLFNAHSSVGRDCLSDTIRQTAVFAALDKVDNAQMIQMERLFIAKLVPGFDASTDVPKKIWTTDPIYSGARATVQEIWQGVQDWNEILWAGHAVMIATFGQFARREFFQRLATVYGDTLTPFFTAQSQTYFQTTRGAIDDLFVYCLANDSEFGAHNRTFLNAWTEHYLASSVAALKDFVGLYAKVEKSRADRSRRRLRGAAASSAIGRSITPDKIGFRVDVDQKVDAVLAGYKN
# T1 sequence (P27355 1-169 partner): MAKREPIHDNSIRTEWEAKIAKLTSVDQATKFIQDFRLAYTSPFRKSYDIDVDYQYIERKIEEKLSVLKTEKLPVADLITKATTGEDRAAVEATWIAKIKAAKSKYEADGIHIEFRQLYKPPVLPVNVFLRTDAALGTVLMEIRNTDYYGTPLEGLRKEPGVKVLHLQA
# Protocol: The three components of methane monooxygenase, reductase, component B, and hydroxylase, were purified by the method of Fox and Lipscomb, supra, the disclosure of which is hereby incorporated by reference. All purification procedures were performed at 4° C. The cell paste (100 g) was suspended in 200 ml of 25 mM MOPS, pH 7.0, containing 200 μ M Fe(NH4 )2 (SO4)2.6H2 O and 2 mM cysteine (Buffer A). The cells were disintegrated by sonication. The sonicated suspension was centrifuged at 48000×g for 60 min. The supernatant was decanted, diluted with an additional 100 ml of buffer A, and adjusted to pH 7.0. The cell free extract was immediately loaded onto a fast flow DEAE Sepharose CL-6B column (40 mm×250 mm) equilibrated with buffer A. The column was then washed with 600 ml of buffer A. All MMO components were completely adsorbed. The MMO components were eluted with a 2000 ml gradient of 0.0 to 0.40M NaCl in buffer A. The hydroxylase eluted at 0.075M NaCl. The two additional fractions required for reconstituted hydroxylase activity, component B and the reductase, eluted at 0.18M NaCl and 0.27M NaCl, respectively.
# 105 nmol of uniformly labelled ^14 C-TCE was added to each vial by injection through the rubber septum above the reaction mixture until a final TCE concentration of 70 μM was reached. The reaction was allowed to proceed for 2 min at 25° C. and then quenched by the addition of sulfuric acid (Sigma Chemical Company, St. Louis, Miss.) at pH 2.0.
# Following centrifugation to remove precipitated protein, the reaction mixtures were analyzed by high pressure liquid chromatography (HPLC).
# [2] = tested on: methane-oxidizing bacteria; details: soil exposed to 0.6% natural gas in air for 3 weeks, TCE average 150 μg/l in influent; cited from earlier work
structure (smiles),measurement,setting,value
"ClC=C(Cl)Cl [TCE, 1,1,2-trichloroethene]",Products of TCE oxidation,"[1]; 70 μM 14C-TCE, 2 min at 25° C., HPLC","formic acid, glyoxylic acid, dichloroacetic acid, and chloral"
same,TCE converted to HPLC-detectable products,"[1]; 70 μM 14C-TCE, 2 min at 25° C., reductase 110 μg, component B 13 μg, hydroxylase 250 μg, NADH 0.1 mM",53%
same,Products of TCE oxidation in control incubations,[1]; each one of the methane monooxygenase components or NADH omitted,no products of TCE oxidation were detectable
same,Applied TCE passing through the soil,[2],less than 5%
